# Legend:
# adipocyte = assay: In vivo browning study in lean mice: Fat % by image analysis of H&E stained tissue; design: species or system Mice (C57BJ/6)
# Description: (§1) Mice (8-10 weeks old males C57BJ/6 strain) were obtained from a commercial vendor Charles River Laboratories. The animal study protocols were approved by the Institutional Animal Care and Use Committee, at the Procter & Gamble Company. Mice were acclimated to the facility for 14 days prior to initiating the study. From arrival, mice were housed in solid-bottom shoebox styled cages within room temperature of 22±2° C. with ad libitum access to water and regular rodent chow diet on a 12 h light/dark cycle. Mice were single housed and offered bedding and various enrichment options. The bedding and nesting material allowed the mice to thermoregulate to their desired level of comfort. Body weights were recorded at the beginning of the study, on each dosing day prior to dosing, and final weights were recorded at the end of the study. Overall food consumption, fecal output, and body appearance were monitored during cage side clinical observations but were not scientifically measured or tracked. During the dosing period, the animals were observed several times per day (for example, before and during injection, immediately to 30-min post injection, a few hours after injection, and end of work day).
# […] The injection was performed using a 25-27-gauge ½-⅝″ length needle via a subcutaneous (SC) injection near or into the inguinal fat pad region of the lower abdomen. Dosing was done twice a week injections over 3 weeks. Necropsy was done at week 4. […]
# Segments of adipocyte and inter-cellular regions in a stained image were identified by Python […] package. […] The threshold between adipocyte and inter-cellular regions in a converted image was detected by the Otsu filter function of the […]. The detected value was adjusted by multiplying 1.1.
# The ratio of adipocyte in an image was calculated from the pixel number of the segments—Adipocyte Pixel was divided by Total Pixel.
# The significance of the difference in Adipocyte Ratio between treatment and control groups was assessed by the Negative Binomial Generalized Linear Mixed-Effects Model using glmer.nb function of R lme4 package. […]
# fat tissue = assay: qPCR biomarker analysis of fat tissue, in vivo; design: species or system Mice (C57BJ/6); details: mouse fat tissue, SC injection twice a week over 3 weeks
# Description: as §1
# Three groups of animals were treated with mirabegron (i.e. positive control) (n=4), placebo (n=2) and Formula III (n=6) on the left side while the right side received placebo in all three groups. The injection was performed using a 25-27-gauge ½-⅝″ length needle via a subcutaneous (SC) injection near or into the inguinal fat pad region of the lower abdomen. Dosing was done twice a week injections over 3 weeks. Necropsy was done at week 4. Test materials were administered at room temperature and in a neutral pH range. Three days after last dosing animals were euthanized with CO2 inhalation, inguinal fat pads were harvested, and tissues were processed for histology and biomarker analysis.
# The qPCR biomarker analysis was conducted from flash frozen fat tissue from mouse study described above. First, RNA was manually extracted with RNAdvance Tissue kit (Agencourt). RNA was extracted from flash frozen fat tissue according to manufactuer's directions. For example, 5 mm steel beads were placed in the freezer for approximately 15-20 minutes. Next, Qiagen Buffer RLT was cooled to 4° C. for 20 minutes and placed in a 96 well 1.5 mL tube rack for sample transfer. Isopropanol was added to Agencourt wash buffer. 100 mL aliquots of 70% ethanol in water were prepared. The RNA Tissue beads were allowed to warm to 22° C. (˜30 minutes), and then the beads were shaken vigorously and intermittently for at least 15-20 minutes. 1 stainless steel bead was added to a 2 mL round bottom tube stored on dry ice. The tissue sample was then transferred to the 2 mL round bottom tube.
# The tube rack was placed on wet ice. Then, the tubes were transferred from dry ice to the rack in wet ice and 350 μL of cold buffer RLT were added to the tubes. The beads were beaten at 30 Hz for 2 minutes. After bead beating, samples were centrifuged for 2 minutes. The supernatant was transferred into 96 well deep well isolation plate.
# 80 μL of RNATissue beads were combined with 320 μL of isopropanol to create a Bind Buffer. This solution was prepared fresh for each isolation with any unused solution discarded.
# 400 μL of Bind Buffer was added to the to RLT mixture and slowly mixed. The solution was incubated at room temperature for 10 minutes. Special care was taken to avoid the formation of bubbles while tip mixing.
# The mixture was placed on a magnet (96 well plate—Agencourt SPRIPlate) for 6-10 minutes. After the solution became clear, the supernatant was removed from each tube while the tubes remained on the magnet and the solution was discarded.
# The tubes were removed from the magnet and the pellets were washed with 800 μL of the Isopropanol Wash Buffer ten times. […]
structure (smiles),measurement,setting,value
CC(C)[C@@H]1CC[C@@H](C)C[C@H]1C(=O)NC[C@@H](NC(=O)[C@H](C)N)c1ccccc1 [Formula III],Average Fat % (Adipocyte Pixel / Total Pixel),"adipocyte; mice, SC injection, Formula III one side and mirabegron other side, high and middle dosage merged, H&E images",90.81%
same,treatment effect of reducing the adipocyte ratio,"adipocyte; treatment vs control, p-value 0.0278, negative binomial mixed-effects model",statistically significant
same,Average Fold vs Placebo: AdipoQ,fat tissue,4.7
same,Average Fold vs Placebo: Adrb3,fat tissue,18.3
same,Average Fold vs Placebo: Cidea,fat tissue,28.0
same,Average Fold vs Placebo: Cox7a1,fat tissue,5.7
same,Average Fold vs Placebo: Cox8b,fat tissue,19.0
same,Average Fold vs Placebo: Dio2,fat tissue,1.8
same,Average Fold vs Placebo: Elovl3,fat tissue,37.5
same,Average Fold vs Placebo: IL6,fat tissue,0.8
same,Average Fold vs Placebo: Ppargc1,fat tissue,3.0
same,Average Fold vs Placebo: Prdm16,fat tissue,3.5
same,Average Fold vs Placebo: Tfap2a,fat tissue,1.2
same,Average Fold vs Placebo: UCP1,fat tissue,73.2
